Key:
An. gambiae = experiment: Blood meal processing (abdominal diameter) in An. gambiae; assay type: in vivo, Anopheles gambiae; conditions: topical 1 μg/mg (ED30 dose of VU041) immediately after engorgement, over 24 h
Method: Blood meal processing studies were performed with similar methods as described above, with the exception that An. gambiae were blood fed on anesthetized mice. All methods were carried out in accordance with Vanderbilt Institutional Animal Care and Use Committee approval (protocol M/13/164 to Dr. Julian Hillyer, Department of Biology, Vanderbilt University). Upon completion of blood feeding, female mosquitoes with a fully distended abdomen were selected and 200 nL of chemical at a non-lethal concentration (1 μg/mg) was applied directly to the abdomen. Any mosquito that died during the 24 h observation period was excluded from the analysis. Images of the abdomens were acquired at 0, 2, 5, 8, and 24 h through the dorsal cuticle and were measured at the widest point of the abdomen. These images were captured using bright-field illumination on a Nikon 90i light microscope (Nikon Corp., Tokyo, Japan) connected to a Photometrics CoolSNAP HQ2 high-sensitivity monochrome CCD camera (Roper Scientific, Ottobrunn, Germany). Digital images were acquired using Nikon Advanced Research NIS-Elements software. Mean abdominal diameters were compared using a one-way ANOVA with a Tukey’s post-hoc analysis (Prism 6, Graphpad Software, La Jolla, CA).

Ae. aegypti = experiment: Topical toxicity bioassay, Ae. aegypti (LVP and PR strains) adult females; assay type: in vivo, Aedes aegypti; conditions: LVP strain
Method: Topical toxicity bioassays in adult female Ae. aegypti (LVP and PR strains) were performed as described previously. […] A solvent-only treatment was included in each experiment as a negative control. Treated mosquitoes were transferred to small cages with access to 10% sucrose and held under rearing conditions for 24 h. The efficacy of a dose was measured as the percentage of treated mosquitoes in a cage that were flightless or dead at 24 h. Four to eight replicates of 10 mosquitoes were performed per dose. The ED50 values were determined using a non-linear curve fit analysis (log [inhibitor] vs. response variable-slope) in Prism 6 (Graphpad Software).
Six replicate experiments of 10 mosquitoes were performed.

AnKir1 = biological target: T1, AnKir1 (Anopheles gambiae, UniProt A0A075M2J8); experiment: Whole-cell patch clamp of AnKir1 in HEK-293T cells; assay type: cell-based; conditions: for IC50: currents at -120 mV
T1 sequence (A0A075M2J8 1-555): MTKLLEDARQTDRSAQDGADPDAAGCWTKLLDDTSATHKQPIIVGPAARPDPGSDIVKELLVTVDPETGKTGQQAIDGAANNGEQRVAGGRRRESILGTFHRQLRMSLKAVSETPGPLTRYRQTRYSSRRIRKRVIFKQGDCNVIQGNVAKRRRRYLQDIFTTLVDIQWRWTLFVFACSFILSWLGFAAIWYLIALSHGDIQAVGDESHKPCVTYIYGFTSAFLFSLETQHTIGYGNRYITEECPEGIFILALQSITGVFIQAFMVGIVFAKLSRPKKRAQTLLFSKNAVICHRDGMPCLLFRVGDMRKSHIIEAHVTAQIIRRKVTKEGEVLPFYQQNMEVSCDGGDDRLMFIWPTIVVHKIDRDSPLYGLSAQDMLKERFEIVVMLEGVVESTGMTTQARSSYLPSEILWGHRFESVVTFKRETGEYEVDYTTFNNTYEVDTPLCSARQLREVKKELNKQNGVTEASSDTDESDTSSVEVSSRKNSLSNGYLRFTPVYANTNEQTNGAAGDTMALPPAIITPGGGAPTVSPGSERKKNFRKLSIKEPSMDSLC
From the text: Transiently transfected HEK-293T cells expressing AnKir1 cells were voltage clamped in the whole-cell configuration of the patch clamp technique, as described previously. The extracellular bath solution contained (in mM): 135 NaCl, 5 KCl, 2 CaCl2, 1 MgCl2, 5 glucose, 10 HEPES free acid, pH 7.4, 290 mOsm/kg H2O. The pipette solution contained (in mM): 135 KCl, 2 MgCl2, 1 EGTA, 10 HEPES free acid, 2 Na2ATP (Roche, Indianapolis, IN), pH 7.3, 275 mOsm. Cells were voltage clamped at −75 mV, stepped to −120 mV for 200 msec, and then ramped to 120 mV at a rate of 2.4 mV/msec. Concentration-response curves (CRCs) were constructed by measuring the effects of increasing doses of inhibitors on AnKir1 currents at −120 mV. All recordings were made at room temperature (20–23 °C).
Patch clamp electrophysiology
Patch electrodes were pulled from silanized 1.5 mm outer diameter borosilicate microhematocrit tubes using a P-1000 Flaming/Brown micropipette puller (Sutter Instrument, Novato CA, USA). Electrode resistance ranged from 2 -4 MΩ. Whole-cell currents were recorded under voltage-clamp conditions using an Axopatch 200B amplifier (Molecular D evices, Sunn yvale, CA). Electri cal conn ections to the amplifier were made using Ag/AgCl wires and 3 M KCl/agar bridges. El ectroph ysiologi cal data were collected at 5 kHz and filtered at 1 kHz.
Data acquisition and anal ys is were performed using pClamp 9.2 software (Axon Instruments). […]

An. gambiae Akron strain = experiment: Topical toxicity bioassay, An. gambiae Akron strain adult females; assay type: in vivo; conditions: 24 h, adult female An. gambiae, (95% confidence limits), synergist PBO applied 4 h prior where labelled
Method: Topical toxicity bioassays were performed based on the method of Pridgeon et al.[50]. Briefly, non-blood fed adult female mosquitoes were chilled on ice for 1–3 minutes, during which 200 nL of chemical (dissolved in 95% ethanol) was applied onto the abdomen of the insect using a handheld Hamilton® micro-applicator. For synergism studies, 500 ng of the synergist (i.e., piperonyl butoxide [PBO] or S,S,S-tributyl phosphorotrithioate [DEF]) per milligram of mosquito (ng/mg) was applied to the abdomen 4 h prior to application of the insecticide. […] The three ED50 values obtained were then averaged and presented as a mean. An ethanol-only treatment was included in each experiment as a negative control. Treated mosquitoes were transferred to small cages with access to 10% sucrose and held under rearing conditions for 24 h. Mortality was recorded at 24 h.

Compound: O=C(Cn1nc(C(F)(F)F)c2c1CCCC2)NC1CCC1 [VU937]
- change of abdominal diameter after blood meal (An. gambiae): decreased significantly over 24 h
- topical toxicity (Ae. aegypti; dose near ED50 of VU041, 24 h): not toxic
- IC50 (AnKir1): 29.7 µM
- AnKir1 inhibition relative to VU041 (fold less) (AnKir1; patch clamp): 60 fold
- ED50, Akron Strain (An. gambiae Akron strain): >10 µg/mg

Compound: O=C(Cn1nc(C(F)(F)F)c2c1CCCC2)N1CCCc2ccccc21 [VU041, 1-(3,4-dihydroquinolin-1(2H)-yl)-2-(3-(trifluoromethyl)-4,5,6,7-tetrahydro-1H-indazol-1-yl)ethan-1-one]
- change of abdominal diameter after blood meal (An. gambiae): did not change over the following 24 h period
- ED50 (Ae. aegypti; topical, 24 h, flightless or dead): 3.24 μg/mg mosquito
- Hill coefficient (patch clamp, AnKir1) (AnKir1): 1.3
- time-course and reversibility of AnKir1 inhibition (AnKir1; 10 μM, wash-out with control saline): rapid and partially reversible
- IC50 (AnKir1): 0.496 µM
- ED50, Akron Strain (An. gambiae Akron strain): 2.8 (2.1–4.1) A μg/mg

Compound: O=C(Cn1ncc2c1CCOC2)N1CCCc2ccccc21 [VU730]
- IC50 (AnKir1): 0.717 µM
